Assay results taken from PMC8998618, “A Pharmacokinetic and Metabolism Study of the TRPC6 Inhibitor SH045 in Mice by LC-MS/MS” (International Journal of Molecular Sciences, 2022).

How the values were obtained:
[1] = time-dependent metabolization (stability) in HLM and IVIVE of hepatic clearance; format: in vitro ADME, human
Source text: In the widely used concept of the “well-stirred” model, liver represents a single uniform compartment. It is further assumed that the concentration of unbound SH045 leaving the liver is in equilibrium with its unbound concentration in hepatocytes (detailed calculation in Supplementary Materials SM8, summarized values in SR4). Briefly, microsomal intrinsic clearance was converted to hepatic clearance: CLhep = Q × fu × CLint/Q + (fu × CLint), where fu is the unbound fraction of SH045 in blood and Q is the hepatic blood flow in mice.
For this purpose, remaining concentrations of SH045 in microsomes were determined to calculate the intrinsic microsomal clearance CLint,micr, the intrinsic clearance CLint, equal to the maximum enzyme activity of liver and for in vitro-in vivo exploration of hepatic clearance CLhep in mouse and human using the well-stirred model. The algorithm for these calculations is given in detail in the Supplementary Materials SM8. […]
All microsome incubations were stopped with 1 mL ice -cold ACN containing 5 µg/mL IS, vortexed for 1 min and cooled at -20 °C for 10 min. […]
2 µL SH045 (final concentration 0.5 – 100 µM, in triplicate), 12.5 µL HLM or MLM (finally 0.5 mg/mL protein) and 460.5 µL DPBS were vortexed and preincubated 37 °C for 5 min. The reaction was initiated by addition of 25 µL analogously pre-incubated β-NADPH (finally: 1 mM). […]
Testosterone (10 µM in ACN/DPBS 2/3, v/v) instead of SH045 was used as positive control and analyzed by an appropriate HPLC method with UV detection.
Negative controls contained either no NADPH, no MLM or HLM or none of them. […]
Mean maximum rate vmax and Michaelis-Menten constant Km were calculated using Lineweaver-Burk transformation. From Km an appropriate drug concentration of 2 µM was derived as prerequisite for experimental in vitro determination of t1/2 required for further exploration of clearance.
For this purpose, microsomes were incubated as described above with 2 µM SH045 for indicated time intervals up to 30 min. The remaining concentrations of SH045 were determined to calculate the intrinsic microsomal clearance CLint,micr the intrinsic clearance CLint, equal to the maximum enzyme activity of liver and for in vitro-in vivo exploration of hepatic clearance CLhep in mouse and human using the “well-stirred” model [6].
(§1) SM7 Identification of metabolism pathways and metabolites of SH045 in MLM and HLM To determine possible metabolism pathways of SH045 in MLM and HLM, an in vitro inhibition approach was performed with CYP-isoform specific inhibitors (final concentration): ciprofloxacin (CYP1A2; 150 µM), pilocarpine (CYP2A6; 50 µM), ticlopidine (CYP2B6; 5 µM), quercetin (CYP2C8; 2 µM), sulfaphenazole (CYP2C9; 10 µM), fluvoxamine (CYP2C19; 10 µM), quinidine (CYP2D6; 10 µM), 4-methyl pyrazole (CYP2E1; 100 µM) and ketoconazole (CYP3A4; 1 µM) [7, 8]. The inhibitors were dissolved in DPBS and appropriate methanol, the organic solvents not […]
SH045 (2 µM) was pre-incubated with MLM or HLM (0.5 mg/mL) and the specific inhibitor for 5 min at 37 °C in DPBS.
Ticlopidine, a time-dependent inhibitor was pre-incubated for 15 min [9]. Incubations were performed in triplicate with NADPH (1 mM) in a final volume of 500 µL for 2 min and 10 min with pre-incubated MLM and HLM, respectively, terminated with 1 mL ice-cold ACN and processed as described above for LC-MS/MS. A sample without any inhibitor served as a positive control. […]

[2] = tissue homogenate binding by ultrafiltration; format: in vitro ADME, mice
Procedure: After centrifugation of mixtures from tissue or microsomal incubations for 15 min at 4 °C, the supernatants were filtered through a 0.2 -µm-pore-size syringe filter and stored in the autosampler at 6 °C until analysis by LC-MS/MS as […]
SM5 Tissue binding of SH045
The tissue binding of SH045 was analyzed exemplarily in lung, liver and kidney homogenate using ultrafiltration [5]. Appropriate concentrations of homogenate and SH045 were optimized out of data from a series of various dilution ratios of tissue homogenates (1/2, 1/5, 1/10 and 1/20, w/v) and SH045 concentrations in spiked homogenate (liver and kidney: 0.05, 0.1, 0.5, 1, 2, 5 µg/mL; lung: 1, 2, 5, 10, 20, 50 µg/mL, not shown). Tissue binding assays were performed as follows: 448 µL tissue homogenates (1/10, w/v) were mixed with 2 µL SH045 (final: 50 µg/ml for lung, 2 µg/ml for liver and 1 µg/ml kidney). After incubation for 15 min at 37 °C at 450 rpm, 400 µL of the mixture was transferred to centrifugal filter units (30kDa) and centrifuged for 20 min at 2000g and 37 °C. 20 µL of the mixture and the filtrate were analyzed for SH045. The concentration in the filtrate refers to the unbound SH045 concentration according to tissue binding (%) = (ctot – cfiltrate) / ctotal × 100%. […]
Mean maximum rate vmax and Michaelis- […]
CLint,micr the intrinsic clearance CLint, equal to the maximum enzyme activity of liver and for in vitro-in vivo exploration of hepatic clearance CLhep in mouse and human using the “well-stirred” model [6].
as §1, with “8].” for “8]. The inhibitors were dissolved in DPBS and appropriate methanol, the organic solvents not”

SMILES: C=C[C@@](C)(O)CC[C@H]1C(=C)C[C@H](OC(=O)NC)[C@H]2C(C)(C)CCC[C@]12C [SH045, (1S,4S,4aR,8aS)-4-((S)-3-Hydroxy-3-methylpent-4-en-1-yl)-4a,8,8-trimethyl-3-methylenedecahydronaphthalen-1-yl methylcarbamate]
- CLint scaled at 2 µM ([1]; human, liver microsomes, scaled from CLint,micr): 334 mL/min/kg
- CLhep ([1]; human, predicted by well-stirred model, Q 21 mL/min/kg): 0.96 mL/min/kg
- CLint ([1]; human, scaled from CLint,micr): 334.6 mL/min/kg
- half-life at 2 µM ([1]; pH 7.4, human liver microsomes 0.5 mg/mL, 2 µM SH045, NADPH): 4.85 min
- microsomal CLint at 2 µM ([1]; pH 7.4, human liver microsomes, read-out: CLint, micr): 286 µL/min/mg
- Tissue binding ([2]; kidney): 98%
- Tissue binding ([2]; liver): 97%
- Tissue binding ([2]; lung): 97%
